Values quoted from earlier work in patent US9057089B2, “Methods for natural product optimization” (The University of Wyoming, priority 2008, dated 2015).

Tests used:
RpoB-V1275F mutant = conditions: rpoB Val→Phe substitution (position 1275)
[1] = test system: fungi, protozoa, or eukaryotic cells
[2] = human clinical trials
peptidoglycan synthesis = conditions: metabolic labeling
[3] = test system: transpeptidases (penicillin binding proteins, PBPs)
[4] = in vivo

Compound: C/C(=C\Cc1ccccc1)CCC(=O)C[C@H]1C[C@H](O)C/C(C)=C/C/C=C/C/C(CC(=O)O)=C\C(=O)O1 [Rip, ripostatin]
- increase of antibiotic MIC values relative to wild type cells (RpoB-V1275F mutant): > 16 fold

Compound: myxopyronin
- increase of antibiotic MIC values relative to wild type cells (RpoB-V1275F mutant): > 32 fold

Compound: CCCC1OC(=O)C(C)CC(C)CCCCC(=O)CCCC(CC)/C=C/C=C(\COC)CCC(O)C(O)CC(O)CNC1=O (centres unmarked) [Antibiotic TA, myxovirescin]
- effect of sera on activity (growing E. coli cells; sera): not inhibited by sera
- growing E. coli cells killed (growing E. coli cells; within 30 minutes at 2 μg/ml): 99%
- activity on fungi, protozoa, or eukaryotic cells [1]: not active
- therapeutic effect in periodontal diseases [2]: effective therapeutic
- three indices (plaque, gingival, and bleeding) ([2]; only two treatments): significantly improved
- peptidoglycan synthesis (peptidoglycan synthesis): blocks peptidoglycan synthesis
- inhibition of final cross-linking step catalyzed by transpeptidases [3]: does not inhibit
- safety [4]: safe

Compound: C/C=C/C/C=C(\C)C(O)CC/C(C)=C/C=C(\C)C(=O)c1c(O)cc([C@H](C)CC/C=C/NC(=O)OC)oc1=O (some centres unmarked) [Cor, corallopyronin]
- increase of antibiotic MIC values relative to wild type cells (RpoB-V1275F mutant): > 8 fold
